Among the targets are PDE-2A3 (Homo sapiens, UniProt O00408); PDE-3A (Homo sapiens, UniProt Q14432); PDE-10A1 (Homo sapiens, UniProt Q9Y233); PDE-4A1 (Homo sapiens, UniProt P27815).
What all share (assay): IMAP fluorescence polarization PDE assay, 8-point IC50
What all share (assay type): biochemical

This passage reports IC50 results from paper PMC2993883 (Journal of Neural Transmission, 2010).

PDE-10A1, sequence (Q9Y233 1-779 isoform Q9Y233-1): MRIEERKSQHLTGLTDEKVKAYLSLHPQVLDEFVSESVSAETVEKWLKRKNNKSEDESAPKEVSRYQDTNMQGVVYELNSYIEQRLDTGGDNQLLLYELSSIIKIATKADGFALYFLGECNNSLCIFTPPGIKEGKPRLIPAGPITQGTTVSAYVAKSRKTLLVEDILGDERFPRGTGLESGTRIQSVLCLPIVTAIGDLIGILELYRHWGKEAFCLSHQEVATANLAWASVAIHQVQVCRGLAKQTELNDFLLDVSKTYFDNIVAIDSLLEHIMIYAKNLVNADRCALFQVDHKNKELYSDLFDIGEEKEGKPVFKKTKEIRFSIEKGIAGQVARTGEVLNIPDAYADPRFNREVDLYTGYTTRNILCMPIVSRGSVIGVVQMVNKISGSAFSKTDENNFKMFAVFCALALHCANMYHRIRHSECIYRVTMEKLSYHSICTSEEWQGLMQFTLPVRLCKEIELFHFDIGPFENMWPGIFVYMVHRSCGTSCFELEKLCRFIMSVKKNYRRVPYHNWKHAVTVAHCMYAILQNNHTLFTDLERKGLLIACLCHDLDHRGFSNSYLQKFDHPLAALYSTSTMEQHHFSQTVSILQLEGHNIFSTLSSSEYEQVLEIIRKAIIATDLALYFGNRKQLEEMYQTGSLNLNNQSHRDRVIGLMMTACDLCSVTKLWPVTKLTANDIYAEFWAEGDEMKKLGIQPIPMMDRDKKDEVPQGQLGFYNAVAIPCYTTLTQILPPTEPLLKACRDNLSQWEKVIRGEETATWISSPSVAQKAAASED
PDE-3A, sequence (Q14432 whole entry): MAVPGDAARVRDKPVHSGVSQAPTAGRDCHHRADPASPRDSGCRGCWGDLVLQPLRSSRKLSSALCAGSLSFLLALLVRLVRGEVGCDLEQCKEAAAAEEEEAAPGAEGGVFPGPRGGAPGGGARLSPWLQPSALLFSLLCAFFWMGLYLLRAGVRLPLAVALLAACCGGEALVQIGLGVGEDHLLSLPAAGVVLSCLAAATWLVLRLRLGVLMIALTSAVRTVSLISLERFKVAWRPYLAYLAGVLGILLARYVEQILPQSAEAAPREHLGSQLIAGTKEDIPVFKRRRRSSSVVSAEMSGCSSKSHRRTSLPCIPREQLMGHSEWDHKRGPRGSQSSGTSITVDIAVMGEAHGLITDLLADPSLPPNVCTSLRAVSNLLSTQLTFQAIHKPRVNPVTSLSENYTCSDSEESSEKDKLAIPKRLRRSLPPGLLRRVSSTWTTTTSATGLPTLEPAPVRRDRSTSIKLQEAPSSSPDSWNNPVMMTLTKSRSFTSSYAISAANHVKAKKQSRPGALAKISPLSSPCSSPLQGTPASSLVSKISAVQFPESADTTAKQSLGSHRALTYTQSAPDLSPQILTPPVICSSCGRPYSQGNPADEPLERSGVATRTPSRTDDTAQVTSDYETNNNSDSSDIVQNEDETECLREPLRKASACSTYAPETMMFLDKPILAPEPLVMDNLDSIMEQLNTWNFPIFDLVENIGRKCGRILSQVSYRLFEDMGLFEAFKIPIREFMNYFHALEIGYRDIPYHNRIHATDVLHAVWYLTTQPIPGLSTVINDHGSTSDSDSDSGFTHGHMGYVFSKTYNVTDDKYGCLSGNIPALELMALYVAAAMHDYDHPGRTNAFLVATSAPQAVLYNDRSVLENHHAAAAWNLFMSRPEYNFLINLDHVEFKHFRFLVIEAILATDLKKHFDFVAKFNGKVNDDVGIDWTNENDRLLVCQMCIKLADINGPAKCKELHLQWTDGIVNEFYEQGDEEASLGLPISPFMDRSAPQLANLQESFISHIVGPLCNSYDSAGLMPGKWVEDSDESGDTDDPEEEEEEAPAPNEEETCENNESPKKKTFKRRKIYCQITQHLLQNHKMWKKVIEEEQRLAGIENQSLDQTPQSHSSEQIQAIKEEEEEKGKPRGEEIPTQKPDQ
PDE-4A1, sequence (P27815 265-886 limits assumed): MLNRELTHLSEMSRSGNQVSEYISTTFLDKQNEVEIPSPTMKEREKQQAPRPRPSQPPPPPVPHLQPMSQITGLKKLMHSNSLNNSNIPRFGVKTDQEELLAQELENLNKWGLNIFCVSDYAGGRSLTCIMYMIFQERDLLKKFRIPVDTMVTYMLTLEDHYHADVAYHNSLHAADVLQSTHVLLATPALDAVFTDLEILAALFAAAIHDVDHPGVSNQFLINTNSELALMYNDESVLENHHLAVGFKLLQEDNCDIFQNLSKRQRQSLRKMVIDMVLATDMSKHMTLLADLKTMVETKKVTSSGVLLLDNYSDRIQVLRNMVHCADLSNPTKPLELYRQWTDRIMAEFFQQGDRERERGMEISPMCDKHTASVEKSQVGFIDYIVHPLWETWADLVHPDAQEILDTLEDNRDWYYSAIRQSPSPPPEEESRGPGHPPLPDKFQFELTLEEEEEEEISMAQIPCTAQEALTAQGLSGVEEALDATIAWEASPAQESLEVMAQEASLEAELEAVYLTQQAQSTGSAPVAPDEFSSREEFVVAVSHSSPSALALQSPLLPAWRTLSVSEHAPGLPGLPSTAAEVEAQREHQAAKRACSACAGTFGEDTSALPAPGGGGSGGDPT
PDE-2A3, sequence (O00408 2-941): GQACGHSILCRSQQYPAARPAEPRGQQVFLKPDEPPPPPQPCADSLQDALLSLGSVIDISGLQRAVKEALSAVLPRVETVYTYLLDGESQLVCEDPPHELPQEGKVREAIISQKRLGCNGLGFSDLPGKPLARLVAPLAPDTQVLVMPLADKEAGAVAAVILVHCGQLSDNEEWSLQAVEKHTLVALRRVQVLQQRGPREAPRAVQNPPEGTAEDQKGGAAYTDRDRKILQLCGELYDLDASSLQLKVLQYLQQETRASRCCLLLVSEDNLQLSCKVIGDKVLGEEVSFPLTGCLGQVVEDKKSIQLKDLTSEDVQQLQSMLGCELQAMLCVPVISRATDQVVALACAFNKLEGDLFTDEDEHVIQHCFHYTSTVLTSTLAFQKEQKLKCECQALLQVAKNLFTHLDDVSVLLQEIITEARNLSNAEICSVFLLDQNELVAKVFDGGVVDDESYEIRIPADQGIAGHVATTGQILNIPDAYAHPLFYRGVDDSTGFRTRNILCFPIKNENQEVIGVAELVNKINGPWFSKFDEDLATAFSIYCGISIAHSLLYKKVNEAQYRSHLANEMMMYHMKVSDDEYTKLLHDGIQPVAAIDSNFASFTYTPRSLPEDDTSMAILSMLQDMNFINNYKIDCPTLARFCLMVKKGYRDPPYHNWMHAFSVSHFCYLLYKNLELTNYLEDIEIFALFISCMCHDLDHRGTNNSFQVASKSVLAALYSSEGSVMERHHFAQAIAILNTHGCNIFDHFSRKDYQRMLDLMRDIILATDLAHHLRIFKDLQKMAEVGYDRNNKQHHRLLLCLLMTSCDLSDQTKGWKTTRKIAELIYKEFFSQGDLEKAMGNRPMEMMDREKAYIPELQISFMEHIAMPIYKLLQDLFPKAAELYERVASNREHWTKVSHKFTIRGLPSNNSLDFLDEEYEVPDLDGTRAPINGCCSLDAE

Consider `CCC1C(C)=NN=C(c2ccc(OC)c(OC)c2)c2cc(OC)c(OC)cc21` (racemic) [tofisopam, 1-(3,4-dimethoxyphenyl)-5-ethyl-7,8-dimethoxy-4-methyl-5H-2,3-benzodiazepine], for which the IC50 at PDE-2A3 was determined as 2110 nM; against PDE-3A it was 1980 nM; against PDE-10A1 it was 920 nM; at PDE-4A1 it was 420 nM.
